Source: PubChem BioAssay AID2060511 (Molecular Pharmacology Branch, DTP, NCI, 2025)

System: 422866-222-R5-J1-PDC spheroids with HUVEC/MSC, viability
Experiment: Anticancer human tumor 422866-222-R5-J1-PDC patient-derived pancreatic adenocarcinoma cell line growth inhibition [GQUAD]
Settings: for IC50: curve of first compound; for viability, T/C: stronger effect = lower value
In short: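 Tumor cells were grown as complex spheroids with HUVEC endothelial cells and mesenchymal stem cells as stroma. G-quadruplex stabilizers were combined with targeted agents over half-log dilutions from near the clinical Cmax, or from 10 microM.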

[1] = second compound 0.0316 µM, first compound 0.0316 µM
[2] = second compound 0.0316 µM, first compound 0.1 µM
[3] = second compound 0.0316 µM, first compound 0.316 µM
[4] = second compound 0.0316 µM, first compound 1 µM
[5] = second compound 0.0316 µM, first compound 3.16 µM
[6] = second compound 0.0316 µM, first compound 10 µM
[7] = second compound 0.1 µM, first compound 0.0316 µM
[8] = second compound 0.1 µM, first compound 0.1 µM
[9] = second compound 0.1 µM, first compound 0.316 µM
[10] = second compound 0.1 µM, first compound 1 µM
[11] = second compound 0.1 µM, first compound 3.16 µM
[12] = second compound 0.1 µM, first compound 10 µM
[13] = second compound 0.316 µM, first compound 0.0316 µM
[14] = second compound 0.316 µM, first compound 0.1 µM
[15] = second compound 0.316 µM, first compound 0.316 µM
[16] = second compound 0.316 µM, first compound 1 µM
[17] = second compound 0.316 µM, first compound 3.16 µM
[18] = second compound 0.316 µM, first compound 10 µM
[19] = second compound 1 µM, first compound 0.0316 µM
[20] = second compound 1 µM, first compound 0.1 µM
[21] = second compound 1 µM, first compound 0.316 µM
[22] = second compound 1 µM, first compound 1 µM
[23] = second compound 1 µM, first compound 3.16 µM
[24] = second compound 1 µM, first compound 10 µM
[25] = second compound 3.16 µM, first compound 0.0316 µM
[26] = second compound 3.16 µM, first compound 0.1 µM
[27] = second compound 3.16 µM, first compound 0.316 µM
[28] = second compound 3.16 µM, first compound 1 µM
[29] = second compound 3.16 µM, first compound 3.16 µM
[30] = second compound 3.16 µM, first compound 10 µM
[31] = second compound 10 µM, first compound 0.0316 µM
[32] = second compound 10 µM, first compound 0.1 µM
[33] = second compound 10 µM, first compound 0.316 µM
[34] = second compound 10 µM, first compound 1 µM
[35] = second compound 10 µM, first compound 3.16 µM
[36] = second compound 10 µM, first compound 10 µM
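Also: spheroids exposed to compounds for seven days before reading.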
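For viability, T/C in this document: percent viability relative to DMSO vehicle control taken as 100%.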

## C#Cc1c(F)ccc2cc(O)cc(-c3ncc4c(N5CC6CCC(C5)N6)nc(OCC56CCCN5CC(F)C6)nc4c3F)c12 (stereo not drawn) + Cc1[nH]c2ccc(F)cc2c1-c1nc2c3cccnc3c3ncccc3c2[nH]1
Second compound 0.0316 µM
  IC50: 2180 nM
Second compound 0.1 µM
  IC50: 2230 nM
Second compound 0.316 µM
  IC50: 1930 nM
Second compound 1 µM
  IC50: 2160 nM
Second compound 3.16 µM
  IC50: 736 nM
Second compound 10 µM
  IC50: 998 nM
[1]
  viability, T/C: 96.1%
[2]
  viability, T/C: 96.4%
[3]
  viability, T/C: 84.4%
[4]
  viability, T/C: 78%
[5]
  viability, T/C: 30.2%
[6]
  viability, T/C: 43.2%
[7]
  viability, T/C: 106%
[8]
  viability, T/C: 92.1%
[9]
  viability, T/C: 98.4%
[10]
  viability, T/C: 75.3%
[11]
  viability, T/C: 39.1%
[12]
  viability, T/C: 33.4%
[13]
  viability, T/C: 106%
[14]
  viability, T/C: 86%
[15]
  viability, T/C: 84%
[16]
  viability, T/C: 64.4%
[17]
  viability, T/C: 35%
[18]
  viability, T/C: 37.4%
[19]
  viability, T/C: 75.9%
[20]
  viability, T/C: 98.3%
[21]
  viability, T/C: 91.6%
[22]
  viability, T/C: 69%
[23]
  viability, T/C: 40.4%
[24]
  viability, T/C: 40.8%
[25]
  viability, T/C: 87.2%
[26]
  viability, T/C: 75.5%
[27]
  viability, T/C: 70.6%
[28]
  viability, T/C: 42.8%
[29]
  viability, T/C: 30.7%
[30]
  viability, T/C: 34.6%
[31]
  viability, T/C: 71.3%
[32]
  viability, T/C: 57.6%
[33]
  viability, T/C: 67%
[34]
  viability, T/C: 46.9%
[35]
  viability, T/C: 39.4%
[36]
  viability, T/C: 38%

## CC(=O)O[C@H]1C(=O)[C@@]2(C)[C@H]([C@H](OC(=O)c3ccccc3)[C@]3(O)C[C@H](OC(=O)[C@H](O)[C@@H](NC(=O)c4ccccc4)c4ccccc4)C(C)=C1C3(C)C)[C@]1(OC(C)=O)CO[C@@H]1C[C@@H]2O + Cc1[nH]c2ccc(F)cc2c1-c1nc2c3cccnc3c3ncccc3c2[nH]1
Second compound 0.0316 µM
  IC50: 671 nM
Second compound 0.1 µM
  IC50: 1300 nM
Second compound 0.316 µM
  IC50: 2040 nM
Second compound 1 µM
  IC50: 1720 nM
Second compound 3.16 µM
  IC50: 2160 nM
Second compound 10 µM
  IC50: 2040 nM
[1]
  viability, T/C: 143%
[2]
  viability, T/C: 143%
[3]
  viability, T/C: 74.7%
[4]
  viability, T/C: 39%
[5]
  viability, T/C: 44.4%
[6]
  viability, T/C: 1.31%
[7]
  viability, T/C: 109%
[8]
  viability, T/C: 128%
[9]
  viability, T/C: 100%
[10]
  viability, T/C: 48.5%
[11]
  viability, T/C: 37.1%
[12]
  viability, T/C: 2.15%
[13]
  viability, T/C: 122%
[14]
  viability, T/C: 107%
[15]
  viability, T/C: 99.5%
[16]
  viability, T/C: 55.3%
[17]
  viability, T/C: 46.9%
[18]
  viability, T/C: 3.01%
[19]
  viability, T/C: 117%
[20]
  viability, T/C: 115%
[21]
  viability, T/C: 98.5%
[22]
  viability, T/C: 53.4%
[23]
  viability, T/C: 42%
[24]
  viability, T/C: 2.03%
[25]
  viability, T/C: 70.5%
[26]
  viability, T/C: 75%
[27]
  viability, T/C: 95%
[28]
  viability, T/C: 43.4%
[29]
  viability, T/C: 50%
[30]
  viability, T/C: 3.32%
[31]
  viability, T/C: 56.1%
[32]
  viability, T/C: 62%
[33]
  viability, T/C: 58.2%
[34]
  viability, T/C: 46.6%
[35]
  viability, T/C: 49.7%
[36]
  viability, T/C: 4.03%

## Nc1ccn(C2OC(CO)C(O)C2(F)F)c(=O)n1 (stereo not drawn) + Cc1[nH]c2ccc(F)cc2c1-c1nc2c3cccnc3c3ncccc3c2[nH]1
Second compound 0.0316 µM
  IC50: 800 nM
Second compound 0.1 µM
  IC50: 427 nM
Second compound 0.316 µM
  IC50: 1200 nM
Second compound 1 µM
  IC50: 504 nM
Second compound 3.16 µM
  IC50: 347 nM
Second compound 10 µM
  IC50: 490 nM
[1]
  viability, T/C: 85.1%
[2]
  viability, T/C: 75.8%
[3]
  viability, T/C: 63.3%
[4]
  viability, T/C: 46%
[5]
  viability, T/C: 41.1%
[6]
  viability, T/C: 41.8%
[7]
  viability, T/C: 83.8%
[8]
  viability, T/C: 82.2%
[9]
  viability, T/C: 52.5%
[10]
  viability, T/C: 42.2%
[11]
  viability, T/C: 43.7%
[12]
  viability, T/C: 42.5%
[13]
  viability, T/C: 97.8%
[14]
  viability, T/C: 80.9%
[15]
  viability, T/C: 67.8%
[16]
  viability, T/C: 49.9%
[17]
  viability, T/C: 42%
[18]
  viability, T/C: 35.2%
[19]
  viability, T/C: 91.5%
[20]
  viability, T/C: 75.9%
[21]
  viability, T/C: 53.2%
[22]
  viability, T/C: 45.1%
[23]
  viability, T/C: 45.2%
[24]
  viability, T/C: 43.3%
[25]
  viability, T/C: 83.4%
[26]
  viability, T/C: 62.3%
[27]
  viability, T/C: 52.6%
[28]
  viability, T/C: 42.3%
[29]
  viability, T/C: 42.2%
[30]
  viability, T/C: 42.9%
[31]
  viability, T/C: 72.3%
[32]
  viability, T/C: 67.6%
[33]
  viability, T/C: 55.4%
[34]
  viability, T/C: 39.9%
[35]
  viability, T/C: 43%
[36]
  viability, T/C: 41.2%

## O=c1[nH]cc(F)c(=O)[nH]1 + Cc1[nH]c2ccc(F)cc2c1-c1nc2c3cccnc3c3ncccc3c2[nH]1
Second compound 0.0316 µM
  IC50: > 10000 nM
Second compound 0.1 µM
  IC50: > 10000 nM
Second compound 0.316 µM
  IC50: > 10000 nM
Second compound 1 µM
  IC50: > 10000 nM
Second compound 3.16 µM
  IC50: > 10000 nM
Second compound 10 µM
  IC50: > 10000 nM
[1]
  viability, T/C: 95%
[2]
  viability, T/C: 101%
[3]
  viability, T/C: 101%
[4]
  viability, T/C: 93.8%
[5]
  viability, T/C: 84.5%
[6]
  viability, T/C: 69.1%
[7]
  viability, T/C: 97.9%
[8]
  viability, T/C: 111%
[9]
  viability, T/C: 105%
[10]
  viability, T/C: 84.2%
[11]
  viability, T/C: 79.9%
[12]
  viability, T/C: 60.5%
[13]
  viability, T/C: 103%
[14]
  viability, T/C: 95.8%
[15]
  viability, T/C: 114%
[16]
  viability, T/C: 73.2%
[17]
  viability, T/C: 82.6%
[18]
  viability, T/C: 74%
[19]
  viability, T/C: 101%
[20]
  viability, T/C: 105%
[21]
  viability, T/C: 101%
[22]
  viability, T/C: 101%
[23]
  viability, T/C: 89.6%
[24]
  viability, T/C: 72.9%
[25]
  viability, T/C: 85.7%
[26]
  viability, T/C: 99.3%
[27]
  viability, T/C: 95.4%
[28]
  viability, T/C: 81.4%
[29]
  viability, T/C: 86.9%
[30]
  viability, T/C: 64%
[31]
  viability, T/C: 74.9%
[32]
  viability, T/C: 79.7%
[33]
  viability, T/C: 85.3%
[34]
  viability, T/C: 72%
[35]
  viability, T/C: 75.5%
[36]
  viability, T/C: 53.3%
